One series concerns Huh7/Rep-Feo cells. Kind of series: Primary HTS cell viability counter-screen (CellTiterGlo). Type of series: cell-based, human. As to conditions: for C-CompZ, compositeZ score for cell viability assay: Table 2 antiviral hits of DOS set, approximately 10-50 μM, most at 33 μM, 48 hours. The protocol: Primary Screening-HTS. Information about the library of known bioactive compounds that was screened and the general automated HTS protocol is available at http://www.broad.harvard.edu/chembio/index.html (see FIG. 10 for list of primary HTS with known bioactives library). Based on the results of optimization experiments in the 384-well plate format, the general HTS protocol was adapted as follows. Unless otherwise indicated, cells were incubated at all times in a humidified environment with 5% CO2 at 37° C. The assay was initiated by plating 30 μL of medium containing 2000 cells/well into white 384-well opaque-bottom plates (Nunc, Rochester, N.Y.) using an automated plate filler (Bio-Tek uFiller; Winsooki, Vt.) and allowing the cells to adhere for 24 hours. One hundred nL of compound stock solutions in DMSO was transferred from stock plates into the 384-well assay plates using an automated pin-based compound transfer robot (CyBio CyBi-Well vario; Woburn, Mass.). The final compound concentration in each well was estimated to be approximately 10-50 μM, with most compounds at 33 μM. The wells contained 0.33% DMSO by volume. The cells were then incubated for another 48 hours. The luminescent signal from each plate was detected using an automated plate reader (Perkin-Elmer Envision 1; Wellesley, Mass.). This screen was performed in duplicate. For negative controls, entire DMSO-treated control plates were employed, in addition to DMSO-only control wells that were incorporated into each compound assay plate. The cells were assayed for luciferase activity using the Bright-Glo Luciferase assay system (Promega), following the manufacturer's instructions. As a counter-screen, cell viability was assessed using the CellTiterGlo Luminescent cell viability assay (Promega) following the manufacturer's instructions.
Computational Data Analysis-Primary Screening. For each replicate, a mock-treatment distribution based on the total population of mock (DMSO) controls in that replicate was built (FIG. 11). Each compound was independently assigned a sign (ie, “+” or “−”) Z-score. Z-scores are calculated by dividing each background-subtracted, compound-treated well by the global standard deviation. A global standard deviation of the background-subtracted, mock-treated wells is calculated over the entire experiment. This distribution was determined to be consistent with experimental noise observed under cell-based assay conditions. The resulting collection of continuousvalued Z-scores represents the primary data set to be used for further analysis. The composite Z-score was calculated as a vector projection of each Z-score in duplicate onto an imaginary line of perfect reproducibility. Reproducibility is the cosine of the angle between each Z-score and that imaginary line; it is dimensionless and ranges from −1 to +1. […] The primary data were analyzed using the commercial software packages Pipeline Pilot (SciTegic, San Diego, Calif.) and SpotFire (SpotFire, Inc., Somerville, Mass.). The means of the negative, DMSO-only controls were considered the zero point.
Primary Screening—HTS: Unless otherwise indicated, cells were incubated at all times in a humidified environment with 5% CO2 at 37° C. The assay was initiated by plating 30 μl of medium containing 2,000 cells/well into white 384-well opaque-bottom plates (Nunc; Rochester, N.Y.) using an automated plate filler (Bio-Tek μFiller; Winsooki, Vt.) and allowing the cells to adhere for 24 hours. 100 nl of compound stock solutions in DMSO were transferred from stock plates into the 384-well assay plates using an automated pin-based compound transfer robot (CyBio CyBi-Well vario; Woburn, Mass.). The final compound concentration in each well was estimated to be approximately 10-50 μM, with most compounds at 33 μM. The wells contained 0.33% DMSO by volume. The cells were then incubated for another 48 hours. […]
(Counterscreens check selectivity or assay interference.)

In series [1] the test system is Huh7/Rep-Feo HCV replicon (HCV RNA replication). Type of series: cell-based, Hepatitis C virus (strain HCV—N, genotype 1b). To be noted: approximately 10-50 μM, most at 33 μM; for R-CompZ, compositeZ score for reporter gene assay: Table 2 antiviral hits of DOS set, 48 hours. A general note: In a reporter assay the amount or activity of a reporter protein is the signal.

As for `COc1cc2c(cc1OC)-c1c/c(=N\c3c(C)cc(C)cc3C)n(C)c(=O)n1CC2` [trequinsin, reference compound], in the series on Huh7/Rep-Feo cells (tested at 33 μM), the “cytotoxicity in the primary screen” value was “cytotoxic”. The “primary screen hit result (in words)” value in series [1] (known bioactives library) is reported as “not identified as a hit”.

Consider `CC(=O)OC[C@H]1O[C@H](CCO/N=C2/[C@H]3CCn4c(=O)n(-c5ccccc5)c(=O)n4[C@H]3[C@H](O)[C@@H]3O[C@H]23)C=C[C@@H]1OC(C)=O` [BUCMLD-B10A3], for which the “C-CompZ, compositeZ score for cell viability assay” value (“C-CompZ, compositeZ score” for short) with Huh7/Rep-Feo cells was −1.8907. In addition, in series [1], the “R-CompZ, compositeZ score for reporter gene assay” value (“R-CompZ, compositeZ score” below) is −4.6336.

Consider `O=C1C2C=C(I)C(CC2OCCCCO)[C@@]12CO2` (stereo partly drawn) [SM_A5B3_2P141], for which, in the series on Huh7/Rep-Feo cells, the “C-CompZ, compositeZ score” value is recorded as 0.6345. For the same molecule, in series [1], the “R-CompZ, compositeZ score” value is reported as −2.5923.

As to `Cc1cc(C)c(-c2cc([C@H](C)O/N=C3/[C@H]4CCn5c(=O)n(-c6ccccc6)c(=O)n5[C@H]4[C@H](O)[C@@H]4O[C@H]34)on2)c(C)c1` [BUCMLD-B10A11], the “C-CompZ, compositeZ score” value with Huh7/Rep-Feo cells is given as −1.7178. Moreover, the “R-CompZ, compositeZ score” value in series [1] was −4.7324.

On to `O=C1C2(CO)C=C(Br)C(CC2c2ccccc2)[C@@]12CO2` (stereo partly drawn) [SM_A6B5_2P100], for which the “C-CompZ, compositeZ score” value in the series with Huh7/Rep-Feo cells is −0.2965. In series [1], the “R-CompZ, compositeZ score” value is given as −3.1341.

Turning to `Cc1cc2c(nc1C)CCCN2CC(C)O/N=C1/[C@H]2CCn3c(=O)n(-c4ccccc4)c(=O)n3[C@H]2[C@H](O)[C@@H]2O[C@H]12` (stereo partly drawn) [BUCMLD-B10A5], the “C-CompZ, compositeZ score” value in the series on Huh7/Rep-Feo cells worked out at 0.3574. For the same molecule, the “R-CompZ, compositeZ score” value in series [1] was −3.0849.
